Common to all, as to assay: Isothermal Titration Calorimetry (ITC)
Settings in all cases: pH 8; 25 °C

One test deals with T1, Leucine--tRNA ligase (Candida albicans (strain WO-1), UniProt C4YL05).
T1 sequence (C4YL05 whole entry): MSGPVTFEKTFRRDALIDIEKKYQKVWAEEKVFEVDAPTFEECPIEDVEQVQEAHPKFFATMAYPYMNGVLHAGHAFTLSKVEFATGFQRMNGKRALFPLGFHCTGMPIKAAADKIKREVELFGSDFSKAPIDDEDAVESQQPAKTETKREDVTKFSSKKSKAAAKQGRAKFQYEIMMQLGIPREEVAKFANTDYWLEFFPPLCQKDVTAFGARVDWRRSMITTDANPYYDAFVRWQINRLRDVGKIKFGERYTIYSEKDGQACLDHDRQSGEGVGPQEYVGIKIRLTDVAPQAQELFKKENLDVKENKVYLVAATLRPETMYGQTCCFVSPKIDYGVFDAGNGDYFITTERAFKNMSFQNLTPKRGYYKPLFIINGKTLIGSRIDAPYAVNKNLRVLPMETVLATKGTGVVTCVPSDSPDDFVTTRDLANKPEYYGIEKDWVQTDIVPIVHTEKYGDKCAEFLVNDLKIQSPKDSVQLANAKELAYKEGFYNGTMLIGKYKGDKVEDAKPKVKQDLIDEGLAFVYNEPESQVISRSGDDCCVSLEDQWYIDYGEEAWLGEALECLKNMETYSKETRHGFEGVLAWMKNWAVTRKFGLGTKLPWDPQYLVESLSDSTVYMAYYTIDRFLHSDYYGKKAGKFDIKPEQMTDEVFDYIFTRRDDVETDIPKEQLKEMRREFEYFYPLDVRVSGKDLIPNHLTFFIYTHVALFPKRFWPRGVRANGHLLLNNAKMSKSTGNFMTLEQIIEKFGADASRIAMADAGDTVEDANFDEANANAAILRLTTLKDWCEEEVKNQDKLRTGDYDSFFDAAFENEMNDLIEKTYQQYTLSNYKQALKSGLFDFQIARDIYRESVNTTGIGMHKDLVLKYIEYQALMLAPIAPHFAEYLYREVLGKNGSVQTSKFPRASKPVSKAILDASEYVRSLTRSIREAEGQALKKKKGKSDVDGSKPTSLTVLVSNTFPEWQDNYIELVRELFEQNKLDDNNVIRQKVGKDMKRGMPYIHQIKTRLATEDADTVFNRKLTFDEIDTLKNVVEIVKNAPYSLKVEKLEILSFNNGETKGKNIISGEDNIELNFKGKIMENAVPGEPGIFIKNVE
The method, then: (§1) ITC was performed using LeuRS CP1 domain wild-type, K510E mutant, or K510A mutant against AN2690-AMP at 25 °C by an ITC200 system (MicroCal, GE Healthcare). Wildtype protein and mutants were dialyzed against the titration buffer (50 mM HEPES-KOH, 30 mM KCl and 30 mM MgCl2, pH 8.0). Compound AN2690 and AMP were also prepared in the same buffer. A 60 μM protein solution was in the presence of 10 mM AMP in the calorimetric cell and titrated using 26 stepwise injections of 1.5 μL each with the compound AN2690 plus AMP. AN2690 solutions were placed in the syringe at 0.7 to 3 mM (depending on the expected affinity) along with 10 mM AMP. The heat generated after each ligand injection was measured base on the integral of the calorimetric signal. The resultant binding isotherms were analyzed by a nonlinear least-squares fit of the experimental data to a single site model using Microcal Origin 7.0 software. Experiments were duplicated and variability estimated to be 5% in the binding

The target in test [1] is Leucine--tRNA ligase [A132I,E138V,K510A,I952T] (Candida albicans (strain WO-1), UniProt A0A1D8PS12, A132I/E138V/I952T/K510A). The method, then: as §1
Test [2] has as its target Leucine--tRNA ligase [A132I,E138V,K510E,I952T] (Candida albicans (strain WO-1), UniProt A0A1D8PS12, A132I/E138V/I952T/K510E). The method, then: as §1

Sequence of Leucine--tRNA ligase [A132I,E138V,K510A,I952T] (A0A1D8PS12 whole entry A132I/E138V/K510A/I952T): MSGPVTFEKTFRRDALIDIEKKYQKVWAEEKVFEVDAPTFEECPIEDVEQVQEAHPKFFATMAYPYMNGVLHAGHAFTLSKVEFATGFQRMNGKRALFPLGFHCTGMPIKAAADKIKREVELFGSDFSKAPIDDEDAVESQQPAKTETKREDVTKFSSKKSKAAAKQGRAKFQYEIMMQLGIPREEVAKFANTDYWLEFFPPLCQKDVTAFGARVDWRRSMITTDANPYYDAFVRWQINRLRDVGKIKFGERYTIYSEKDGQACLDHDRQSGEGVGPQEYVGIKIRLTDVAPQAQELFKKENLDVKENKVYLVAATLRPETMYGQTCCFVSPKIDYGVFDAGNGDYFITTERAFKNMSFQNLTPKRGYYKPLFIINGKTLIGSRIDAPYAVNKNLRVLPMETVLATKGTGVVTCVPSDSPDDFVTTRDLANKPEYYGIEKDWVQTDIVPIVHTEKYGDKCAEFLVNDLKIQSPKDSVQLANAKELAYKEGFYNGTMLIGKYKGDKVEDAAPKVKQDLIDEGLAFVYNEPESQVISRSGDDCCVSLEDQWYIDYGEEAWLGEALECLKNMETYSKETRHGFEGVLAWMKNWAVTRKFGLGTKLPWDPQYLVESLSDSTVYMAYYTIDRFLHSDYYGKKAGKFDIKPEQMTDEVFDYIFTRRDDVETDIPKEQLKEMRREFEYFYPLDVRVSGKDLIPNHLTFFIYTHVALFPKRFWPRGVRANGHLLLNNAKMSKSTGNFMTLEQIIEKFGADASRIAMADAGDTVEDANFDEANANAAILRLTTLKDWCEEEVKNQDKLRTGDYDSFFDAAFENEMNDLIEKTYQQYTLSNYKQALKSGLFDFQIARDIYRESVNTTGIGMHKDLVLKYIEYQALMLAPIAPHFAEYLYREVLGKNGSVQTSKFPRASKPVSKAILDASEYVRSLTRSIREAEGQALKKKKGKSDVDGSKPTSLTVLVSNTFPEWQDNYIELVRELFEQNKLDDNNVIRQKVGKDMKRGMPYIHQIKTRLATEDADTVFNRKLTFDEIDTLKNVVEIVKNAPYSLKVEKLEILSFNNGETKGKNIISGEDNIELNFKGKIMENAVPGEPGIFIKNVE
Sequence of Leucine--tRNA ligase [A132I,E138V,K510E,I952T] (A0A1D8PS12 whole entry A132I/E138V/K510E/I952T): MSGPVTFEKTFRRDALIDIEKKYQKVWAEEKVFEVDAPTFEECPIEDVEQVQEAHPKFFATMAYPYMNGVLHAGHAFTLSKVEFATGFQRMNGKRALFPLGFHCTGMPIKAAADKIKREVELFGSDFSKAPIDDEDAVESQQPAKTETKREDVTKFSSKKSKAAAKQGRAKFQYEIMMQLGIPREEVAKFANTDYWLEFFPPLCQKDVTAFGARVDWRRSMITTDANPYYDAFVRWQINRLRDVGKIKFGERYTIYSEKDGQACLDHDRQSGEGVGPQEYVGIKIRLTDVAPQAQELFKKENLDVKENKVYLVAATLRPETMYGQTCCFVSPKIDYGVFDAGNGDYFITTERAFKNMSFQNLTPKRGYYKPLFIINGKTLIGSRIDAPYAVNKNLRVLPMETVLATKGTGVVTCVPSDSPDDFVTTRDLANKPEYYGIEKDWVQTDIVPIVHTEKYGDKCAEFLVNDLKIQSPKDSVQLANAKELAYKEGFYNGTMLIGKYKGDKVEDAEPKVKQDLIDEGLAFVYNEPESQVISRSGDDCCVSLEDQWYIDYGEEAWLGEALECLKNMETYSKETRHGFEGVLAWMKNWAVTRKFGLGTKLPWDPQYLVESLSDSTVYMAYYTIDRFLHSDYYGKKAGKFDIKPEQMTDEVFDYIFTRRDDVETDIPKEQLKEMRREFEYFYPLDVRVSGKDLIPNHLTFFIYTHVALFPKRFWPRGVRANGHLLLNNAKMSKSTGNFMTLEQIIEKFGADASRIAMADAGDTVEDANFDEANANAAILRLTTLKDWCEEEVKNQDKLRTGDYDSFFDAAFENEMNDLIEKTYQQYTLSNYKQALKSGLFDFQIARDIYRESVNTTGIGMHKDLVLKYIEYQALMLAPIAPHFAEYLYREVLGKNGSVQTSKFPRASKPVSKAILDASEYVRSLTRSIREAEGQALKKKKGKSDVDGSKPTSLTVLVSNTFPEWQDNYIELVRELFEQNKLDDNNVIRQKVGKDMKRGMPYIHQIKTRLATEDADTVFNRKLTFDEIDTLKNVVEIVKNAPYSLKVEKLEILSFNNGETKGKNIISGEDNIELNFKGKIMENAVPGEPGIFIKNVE

The Kd is the constant that tells how readily two partners part at equilibrium. Read a low Kd as higher affinity. As to `CC[C@H]1O[C@@H](n2cnc3c(N)ncnc32)[C@H]2O[B-]3(OCc4cc(F)ccc43)OC12` (stereo partly drawn) [AN2690-AMP], the dissociation constant (Kd) on Leucine--tRNA ligase is 0.7 µM; in test [1], 46 µM; in test [2] it was 21 µM.

These data come from BindingDB's records for doi:10.1021/acschembio.5b00291 (Ujf-Embl-Cnrs, 2015).
